Results: ChEMBL document CHEMBL1201862, “PubChem BioAssay data set” (2004)
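Values below derive from 48-hour exposures of cells grown in 96-well plates, with endpoints linearly interpolated between the two concentrations bracketing the appropriate inhibition level. The concentration for 50% growth inhibition is given as GI50.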 Calls of active or inactive are those of the source. Cut-off read from the data, not from the text of the source: active = GI50 up to about 1.1 µM and inactive = higher.

Assays:
Test in all cases: inhibition of tumour cell growth, NCI panel, 48 h
[1] = tested on: SR
[2] = tested on: LOX IMVI
[3] = tested on: NCI-H23
[4] = tested on: PC-3
[5] = tested on: UACC-62
[6] = tested on: OVCAR-3
[7] = tested on: UO-31
[8] = tested on: SF-539
[9] = tested on: NCI-H460
[10] = tested on: HOP-62
[11] = tested on: ACHN
[12] = tested on: OVCAR-5
[13] = tested on: MOLT-4
[14] = tested on: U-251
[15] = tested on: CCRF-CEM
[16] = tested on: RPMI-8226
[17] = tested on: COLO 205
[18] = tested on: T47D
[19] = tested on: NCI-H226
[20] = tested on: MDA-MB-231

SMILES	GI50 [1]	GI50 [2]	GI50 [3]	GI50 [4]	GI50 [5]	GI50 [6]	GI50 [7]	GI50 [8]	GI50 [9]	GI50 [10]	GI50 [11]	GI50 [12]	GI50 [13]	GI50 [14]	GI50 [15]	GI50 [16]	GI50 [17]	GI50 [18]	GI50 [19]	GI50 [20]
C(#CC1(Nc2ccccc2)CCN(Cc2ccccc2)CC1)C1(Nc2ccccc2)CCN(Cc2ccccc2)CC1	3.15 µM (inactive)	5.14 µM (inactive)	37.8 µM (inactive)	15.1 µM (inactive)	13.2 µM (inactive)	37.8 µM (inactive)	15.5 µM (inactive)	5.5 µM (inactive)	16.3 µM (inactive)	16.7 µM (inactive)	39.4 µM (inactive)	53.3 µM (inactive)	4.17 µM (inactive)	19.9 µM (inactive)	6.27 µM (inactive)	1.18 µM (inactive)	1.31 µM (inactive)	9.31 µM (inactive)	26.7 µM (inactive)	16.3 µM (inactive)
CC1(C)C2CC3C(C)(C2)C31c1cc(Cl)ccc1N (stereo not given)	6.79 µM (inactive)	13.6 µM (inactive)	12.3 µM (inactive)	13.8 µM (inactive)	15.2 µM (inactive)	16.7 µM (inactive)	13.9 µM (inactive)	15.5 µM (inactive)	15.1 µM (inactive)	15.3 µM (inactive)	15.6 µM (inactive)	16 µM (inactive)	8.36 µM (inactive)	15.2 µM (inactive)	16 µM (inactive)	13 µM (inactive)	19.1 µM (inactive)	12 µM (inactive)	17.8 µM (inactive)	16.2 µM (inactive)
COc1cc(O)c2c(O)c3c(c4c2c1[C@]1(C4)C(C)=CCCC1(C)C)[C@H](O)[C@@]1(O)CC(O)=C(C(N)=O)C(=O)[C@@]1(O)C3=O	0.269 µM (active)	0.305 µM (active)	0.164 µM (active)	0.119 µM (active)	0.573 µM (active)	0.228 µM (active)	0.34 µM (active)	0.166 µM (active)	0.0435 µM (active)	0.16 µM (active)	0.209 µM (active)	0.324 µM (active)	0.333 µM (active)	0.0453 µM (active)	0.0326 µM (active)	0.0612 µM (active)	0.108 µM (active)	0.365 µM (active)	0.239 µM (active)	0.259 µM (active)
O=C1C=CC(=O)c2c1ccc1c3ccccc3n(-c3cccc([N+](=O)[O-])c3)c21	0.412 µM (active)	> 10 µM (inactive)	2.65 µM (inactive)	> 8.3 µM (inactive)	2.13 µM (inactive)	2.13 µM (inactive)	2.4 µM (inactive)	> 5.05 µM (inactive)	> 10 µM (inactive)	> 10 µM (inactive)	1.7 µM (inactive)	> 10 µM (inactive)	0.355 µM (active)	9.71 µM (inactive)	0.357 µM (active)	1 µM (active)	1.42 µM (inactive)	2.38 µM (inactive)	> 10 µM (inactive)	2.72 µM (inactive)
OCCCNCC(O)c1ccc(OCc2ccccc2)c(OCc2ccccc2)c1 (stereo not given)	10.9 µM (inactive)	6.35 µM (inactive)	17.5 µM (inactive)	10.9 µM (inactive)	20 µM (inactive)	15.9 µM (inactive)	15 µM (inactive)	10.9 µM (inactive)	7.52 µM (inactive)	14.3 µM (inactive)	10.4 µM (inactive)	15.7 µM (inactive)	8.3 µM (inactive)	9.75 µM (inactive)	8.15 µM (inactive)	8.47 µM (inactive)	4.76 µM (inactive)	15.6 µM (inactive)	12.4 µM (inactive)	14 µM (inactive)
CN(C)CCNc1ccc2nnn3c4ccc(O)cc4c(=O)c1c23	0.18 µM (active)	1.5 µM (inactive)	3.75 µM (inactive)	1.46 µM (inactive)	4.74 µM (inactive)	5.73 µM (inactive)	2.22 µM (inactive)	3.95 µM (inactive)	0.498 µM (active)	1.39 µM (inactive)	2.76 µM (inactive)	4.41 µM (inactive)	0.168 µM (active)	2.1 µM (inactive)	1.11 µM (active)	2.06 µM (inactive)	3.39 µM (inactive)	11.1 µM (inactive)	6.31 µM (inactive)	0.273 µM (active)
Nc1nc(N)c2ncn(-c3ccc(Br)cc3)c2n1	0.119 µM (active)	27 µM (inactive)	40.6 µM (inactive)	23 µM (inactive)	17.1 µM (inactive)	16.2 µM (inactive)	13.5 µM (inactive)	14.7 µM (inactive)	34.9 µM (inactive)	23.6 µM (inactive)	13.3 µM (inactive)	20.9 µM (inactive)	11.6 µM (inactive)	24.9 µM (inactive)	8.43 µM (inactive)	11.4 µM (inactive)	> 50.5 µM (inactive)	29.4 µM (inactive)	40.6 µM (inactive)	23.8 µM (inactive)
CC(C)=CCC[C@](C)(O)[C@H]1CC[C@]2(C)[C@@H]1[C@H](O)C[C@@H]1[C@@]3(C)CC[C@H](O[C@@H]4O[C@H](CO)[C@@H](O)[C@H](O)[C@H]4O)C(C)(C)[C@@H]3CC[C@]12C [GINSENOSIDE RH2]	14 µM (inactive)	29 µM (inactive)	20.6 µM (inactive)	17.6 µM (inactive)	16.6 µM (inactive)	17.9 µM (inactive)	17.4 µM (inactive)	22.2 µM (inactive)	16.6 µM (inactive)	32.6 µM (inactive)	17.8 µM (inactive)	26.2 µM (inactive)	17.1 µM (inactive)	17.7 µM (inactive)	23.5 µM (inactive)	19.1 µM (inactive)	19.5 µM (inactive)	18.2 µM (inactive)	17.6 µM (inactive)	18.2 µM (inactive)
CN(C)CCNC(=O)c1cccc2[nH]c(-c3ccncc3)nc12	3.38 µM (inactive)	0.733 µM (active)	8.39 µM (inactive)	3.83 µM (inactive)	2.96 µM (inactive)	9.62 µM (inactive)	2.77 µM (inactive)	2.65 µM (inactive)	2.78 µM (inactive)	18.7 µM (inactive)	6.53 µM (inactive)	10.1 µM (inactive)	3.56 µM (inactive)	3.1 µM (inactive)	2.29 µM (inactive)	3 µM (inactive)	1.6 µM (inactive)	12.7 µM (inactive)	15.2 µM (inactive)	3.24 µM (inactive)
CC(C)=CCC/C(C)=C/CC/C(C)=C/CCN(C)CCO	6.35 µM (inactive)	3.15 µM (inactive)	11.6 µM (inactive)	6.47 µM (inactive)	13.5 µM (inactive)	13.8 µM (inactive)	12.1 µM (inactive)	4.25 µM (inactive)	4.78 µM (inactive)	6.78 µM (inactive)	10.8 µM (inactive)	6.46 µM (inactive)	3.44 µM (inactive)	3.3 µM (inactive)	2.39 µM (inactive)	2.96 µM (inactive)	1.72 µM (inactive)	2.78 µM (inactive)	14.9 µM (inactive)	10.9 µM (inactive)
